The values below are quoted from earlier work in US7125702B2, “Process for the preparation of angiotensis converting enzyme (ACE) inhibitors and its use” (Council of Scientific and Industrial Research, priority 2003, dated 2006).

The target in series [1] is angiotensin I-converting enzyme (Homo sapiens, UniProt P12821). Conditions: read-out: IC50 (ACE inhibition).
Series [2] addresses angiotensin-converting enzyme (Homo sapiens, UniProt P12821). As to conditions: read-out: IC50 (ACE inhibition).
Series [3] concerns spontaneously hypertensive rats. Conditions: 30 mg/kg intravenous injection.

Sequence of angiotensin-converting enzyme (P12821 30-1306): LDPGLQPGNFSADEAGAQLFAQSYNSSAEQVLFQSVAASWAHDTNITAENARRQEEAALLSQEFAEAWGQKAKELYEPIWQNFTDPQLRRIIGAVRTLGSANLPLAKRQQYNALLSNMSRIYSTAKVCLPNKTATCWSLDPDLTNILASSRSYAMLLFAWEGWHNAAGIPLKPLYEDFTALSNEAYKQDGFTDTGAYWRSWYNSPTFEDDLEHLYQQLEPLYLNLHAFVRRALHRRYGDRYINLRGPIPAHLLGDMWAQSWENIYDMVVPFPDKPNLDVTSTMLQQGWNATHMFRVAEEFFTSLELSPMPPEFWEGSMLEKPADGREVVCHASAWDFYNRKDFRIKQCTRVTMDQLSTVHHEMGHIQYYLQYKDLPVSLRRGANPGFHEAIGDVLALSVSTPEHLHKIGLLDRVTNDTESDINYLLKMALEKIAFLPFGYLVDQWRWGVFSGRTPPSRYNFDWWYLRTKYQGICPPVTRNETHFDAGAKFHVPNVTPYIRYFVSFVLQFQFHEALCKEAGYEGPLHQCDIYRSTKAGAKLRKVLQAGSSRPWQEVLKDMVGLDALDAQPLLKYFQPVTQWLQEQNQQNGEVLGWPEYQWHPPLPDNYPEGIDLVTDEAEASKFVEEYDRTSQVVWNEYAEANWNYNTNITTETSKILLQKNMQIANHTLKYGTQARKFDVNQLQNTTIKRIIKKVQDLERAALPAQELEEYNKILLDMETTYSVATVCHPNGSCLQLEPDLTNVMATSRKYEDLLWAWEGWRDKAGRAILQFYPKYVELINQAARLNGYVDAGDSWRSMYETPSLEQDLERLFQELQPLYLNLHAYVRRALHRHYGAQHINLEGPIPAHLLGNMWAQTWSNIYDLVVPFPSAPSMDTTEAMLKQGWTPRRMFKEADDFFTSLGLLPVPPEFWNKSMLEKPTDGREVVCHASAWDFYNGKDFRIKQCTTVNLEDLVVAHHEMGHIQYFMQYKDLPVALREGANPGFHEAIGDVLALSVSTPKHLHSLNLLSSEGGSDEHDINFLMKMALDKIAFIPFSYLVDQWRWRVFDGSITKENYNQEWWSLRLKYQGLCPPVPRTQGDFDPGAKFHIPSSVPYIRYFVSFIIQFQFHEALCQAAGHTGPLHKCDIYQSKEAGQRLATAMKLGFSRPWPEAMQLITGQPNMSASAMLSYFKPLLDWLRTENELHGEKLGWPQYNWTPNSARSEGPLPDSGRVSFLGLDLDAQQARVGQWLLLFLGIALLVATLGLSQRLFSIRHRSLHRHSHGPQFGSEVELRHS
Sequence of angiotensin I-converting enzyme (P12821 30-1306): as above

For Ap-Leu-Pro, the IC50 in series [1] was 4800 nM.

On to Asp-Gly, for which the IC50 in series [1] was 12300 nM.

On to His-His-Leu, for which the “pressure in the aorta” value with blood pressure (synthetic peptide) was “significant pressure decrease”. In addition, the “systolic blood pressure decrease” value with blood pressure (triple injections of the peptide) is recorded as 61 mm Hg. For the substance “Leu-Arg-Pro [tripeptide from thermolysin hydrolysate of α-zein]”, in series [2], the IC50 was 270 nM. For the same substance, the blood pressure decrease in series [3] is listed as 15 mm Hg. For “Leu-Asn-Pro [tripeptide from thermolysin hydrolysate of α-zein]”, in series [2], the IC50 was 1900 nM. For “Leu-Ser-Pro [tripeptide from thermolysin hydrolysate of α-zein]”, in series [2], the IC50 is 1700 nM.
